From patent US9345731B2, “Herbal extract as sensitivity enhancer toward insulin and antidiabetes” (PT. DEXA MEDICA, priority 2008, dated 2016)

Tests used:
[1] = tested on: insulin resistance adipocytes 3T3 Swiss Albino cells; assay: Glucose uptake by insulin resistance adipocytes (anthrone reagent, spectrophotometer); assay type: cell-based; conditions: 5 μg/ml extract combination or 0.02 μM pioglitazone, 48 hours, from the initial 5% (untreated)
Method: FIG. 12 is the graphic of glucose measurement results obtained from insulin resistance adipocytes 3T3 Swiss Albino after administration of 5 μg/ml Lythraceae and Lauraceae family plant combination extracts or 0.02 μM pioglitazone and/or 25 nM insulin during 48 hours incubation, then incubation with 5 mg/ml glucose for 0, 2, 4, 6 hours. 3T3 Swiss Albino cells were differentiated until 3T3 Swiss Albino pre-adipocytes and 3T3 Swiss Albino adipocytes cells were obtained. Each cell type received excessive glucose for over 2 weeks. Incubated cells received such excessive glucose were used as insulin resistance model. After that, those four type cells obtained were tested for its ability to uptake glucose in media. The remaining glucose level was analyzed so that the glucose level uptaken by each 3T3 Swiss Albino cell type could be determined. To measure glucose level that was uptaken by cell, we used an experiment method which is initialized by culturing 3T3 Swiss Albino cells in 6 cm-diameter plates. […] Glucose concentration that was uptaken by cells was measured by subtracting the initial glucose concentration with the remaining glucose in media at the end of incubation time. […] The reaction result was quantified by spectrophotometer.

3T3 Swiss Albino cells = assay: In vitro toxicity test (MTT) on cell viability; assay type: cell-based; conditions: 0.02 μM, 48 hours
Method: METHODS: 3T3 Swiss Albino cells were cultured in 96-well plates. The cells were then administered with the extract combination of Lagerstroemia speciosa and Cinnamomum burmannii in a range of dose 1-10 μg/ml, pioglitazone and glimepiride (as control) for 48 hours to study the extract toxicity towards cells. Each well was added MTT reagent and the number of living cells was counted using a spectrometer.

Row | Structure (SMILES) | glucose level uptaken [1] [%] | cell viability (3T3 Swiss Albino cells)
1 | CCc1ccc(CCOc2ccc(CC3SC(=O)NC3=O)cc2)nc1 (stereo not drawn) [pioglitazone] | 20 | did not show any effect
2 | CCC1=C(C)CN(C(=O)NCCc2ccc(S(=O)(=O)NC(=O)N[C@H]3CC[C@H](C)CC3)cc2)C1=O [glimepiride] |  | did not show any effect
